Test results published in patent US20200247897A1, “THERAPEUTIC ANTIBODIES BASED ON MUTATED IGG HEXAMERS” (GENMAB B.V., priority 2017, published 2020).

What was measured:
[1] = system: BxPC-3 pancreatic cancer cells; assay: Caspase-Glo 3/7 assay, BxPC-3; type: cell-based, human; settings: 26.6 nM; 1, 2, 4 to 6 hours
[2] = system: BxPC-3 pancreatic cancer cells; assay: 3-days CellTiter-Glo viability assay, BxPC-3; settings: Z-VAD-FMK 5 μM

**Q.** What does the source list for “TRAIL: natural DR5 ligand, recombinant human TRAIL/APO-2L”?
**A.** caspase-3/7 activation [1]: more rapid and more potent caspase-3/7 activation; viability of BxPC-3 cells in presence of pan-caspase inhibitor Z-VAD-FMK [2]: inhibited in the presence of pan-caspase inhibitor Z-VAD-FMK
